{"source": "paper PMC11303713", "about": "“Allosteric inhibition of CFTR gating by CFTRinh-172 binding in the pore” (Nature Communications, 2024)", "assay_in_all_cases": "Inside-out patch-clamp inhibition of CFTR current by Inh-172", "assay_type_in_all_cases": "cell-based", "key": {"W1145L-CFTR": {"target": "T1, W1145L-CFTR (Homo sapiens, UniProt P13569, W1145L)", "T1 construct": "expressed in transfected cells; host or cells: CHO cells, pcDNA plasmid", "T1 sequence (P13569 whole entry W1145L)": "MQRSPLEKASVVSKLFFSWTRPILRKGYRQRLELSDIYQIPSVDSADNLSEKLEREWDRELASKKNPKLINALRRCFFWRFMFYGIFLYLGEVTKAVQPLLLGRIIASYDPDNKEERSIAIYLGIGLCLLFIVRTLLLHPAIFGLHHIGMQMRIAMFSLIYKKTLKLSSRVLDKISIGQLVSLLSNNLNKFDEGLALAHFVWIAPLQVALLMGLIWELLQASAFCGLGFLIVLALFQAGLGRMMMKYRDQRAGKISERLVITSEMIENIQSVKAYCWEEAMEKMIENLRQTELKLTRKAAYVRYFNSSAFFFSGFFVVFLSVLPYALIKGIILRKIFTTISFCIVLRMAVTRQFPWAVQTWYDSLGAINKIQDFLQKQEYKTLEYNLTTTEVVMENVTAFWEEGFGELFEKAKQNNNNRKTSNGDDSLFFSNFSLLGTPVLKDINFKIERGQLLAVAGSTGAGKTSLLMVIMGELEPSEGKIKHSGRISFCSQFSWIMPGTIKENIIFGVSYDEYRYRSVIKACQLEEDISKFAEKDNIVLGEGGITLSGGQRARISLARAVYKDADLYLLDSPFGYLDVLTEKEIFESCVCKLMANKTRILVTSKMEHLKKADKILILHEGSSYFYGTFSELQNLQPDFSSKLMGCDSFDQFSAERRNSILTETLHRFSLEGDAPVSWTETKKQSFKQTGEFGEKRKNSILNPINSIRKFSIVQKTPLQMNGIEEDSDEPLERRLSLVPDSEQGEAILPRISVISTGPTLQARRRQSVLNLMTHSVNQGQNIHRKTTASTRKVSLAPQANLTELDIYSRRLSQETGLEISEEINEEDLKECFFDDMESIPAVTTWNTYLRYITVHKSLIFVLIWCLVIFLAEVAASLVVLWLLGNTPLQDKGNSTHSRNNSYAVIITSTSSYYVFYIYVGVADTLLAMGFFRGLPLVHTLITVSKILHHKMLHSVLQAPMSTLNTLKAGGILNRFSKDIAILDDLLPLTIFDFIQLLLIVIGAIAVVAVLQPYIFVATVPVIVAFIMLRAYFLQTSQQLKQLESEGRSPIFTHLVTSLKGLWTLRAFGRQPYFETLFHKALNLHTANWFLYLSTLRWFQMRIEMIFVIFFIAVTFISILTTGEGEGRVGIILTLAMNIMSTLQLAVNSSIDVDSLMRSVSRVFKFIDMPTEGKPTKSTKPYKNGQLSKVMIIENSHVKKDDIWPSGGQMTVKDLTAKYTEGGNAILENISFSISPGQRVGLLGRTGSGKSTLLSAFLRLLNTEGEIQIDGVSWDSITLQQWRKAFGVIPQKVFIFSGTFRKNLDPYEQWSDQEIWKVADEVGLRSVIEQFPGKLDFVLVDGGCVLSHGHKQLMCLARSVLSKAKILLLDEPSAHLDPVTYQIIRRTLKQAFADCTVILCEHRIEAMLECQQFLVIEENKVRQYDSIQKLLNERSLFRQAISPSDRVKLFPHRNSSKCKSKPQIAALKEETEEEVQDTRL"}, "[1]": {"target": "T2, p-hTMD1-p-CFTR (pig CFTR with human CFTR's TMD1) (Sus scrofa, UniProt Q6PQZ2, A115E/A228G/F12V/H39Q/I11V/I421T/I87F/K242R/K407E/L215I/L315F/L328I/M332I/N256S/N426D/P145L/S418N/S41P/S43V/S445N/T209A/V125I/V231I)", "T2 construct": "expressed in transfected cells; host or cells: CHO cells, pcDNA plasmid", "T2 sequence (Q6PQZ2 1-1482 with the stated changes)": "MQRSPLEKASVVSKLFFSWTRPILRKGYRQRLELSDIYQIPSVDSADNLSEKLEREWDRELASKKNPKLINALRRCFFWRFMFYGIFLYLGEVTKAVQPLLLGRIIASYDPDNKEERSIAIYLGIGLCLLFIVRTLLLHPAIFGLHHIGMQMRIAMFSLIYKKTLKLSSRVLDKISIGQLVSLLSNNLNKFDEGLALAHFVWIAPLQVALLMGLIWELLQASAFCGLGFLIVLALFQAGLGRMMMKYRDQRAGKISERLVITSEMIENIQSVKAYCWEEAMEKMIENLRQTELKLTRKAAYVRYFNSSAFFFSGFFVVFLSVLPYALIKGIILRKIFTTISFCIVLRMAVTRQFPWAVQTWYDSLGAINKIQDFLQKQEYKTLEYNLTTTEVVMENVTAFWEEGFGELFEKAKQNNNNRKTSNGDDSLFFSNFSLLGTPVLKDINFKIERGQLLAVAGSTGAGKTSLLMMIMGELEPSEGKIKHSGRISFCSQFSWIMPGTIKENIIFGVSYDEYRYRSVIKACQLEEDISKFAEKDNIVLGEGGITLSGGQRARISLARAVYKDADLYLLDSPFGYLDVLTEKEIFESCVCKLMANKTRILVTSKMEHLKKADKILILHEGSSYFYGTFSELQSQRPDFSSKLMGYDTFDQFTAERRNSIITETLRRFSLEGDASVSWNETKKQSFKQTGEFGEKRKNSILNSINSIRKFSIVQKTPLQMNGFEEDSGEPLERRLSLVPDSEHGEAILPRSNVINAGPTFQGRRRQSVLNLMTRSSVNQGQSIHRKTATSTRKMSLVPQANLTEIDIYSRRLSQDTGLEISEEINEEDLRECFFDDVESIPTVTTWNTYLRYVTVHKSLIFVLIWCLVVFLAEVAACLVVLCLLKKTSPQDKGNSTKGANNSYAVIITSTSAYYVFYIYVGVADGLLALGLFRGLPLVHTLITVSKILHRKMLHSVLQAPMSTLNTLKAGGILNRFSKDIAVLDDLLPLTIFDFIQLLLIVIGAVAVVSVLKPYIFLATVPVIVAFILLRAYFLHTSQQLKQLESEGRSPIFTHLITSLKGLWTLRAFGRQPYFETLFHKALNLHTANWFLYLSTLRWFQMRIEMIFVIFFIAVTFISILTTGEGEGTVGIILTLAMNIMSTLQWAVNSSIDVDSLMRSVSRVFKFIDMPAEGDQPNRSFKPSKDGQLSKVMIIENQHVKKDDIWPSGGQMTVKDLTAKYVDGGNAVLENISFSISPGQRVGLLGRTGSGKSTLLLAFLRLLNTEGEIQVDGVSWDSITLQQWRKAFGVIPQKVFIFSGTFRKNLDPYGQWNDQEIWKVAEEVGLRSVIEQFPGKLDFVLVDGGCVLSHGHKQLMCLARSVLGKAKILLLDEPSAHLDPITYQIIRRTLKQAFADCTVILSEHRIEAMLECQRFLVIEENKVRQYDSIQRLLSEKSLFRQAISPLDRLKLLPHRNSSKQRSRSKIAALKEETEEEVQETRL"}, "pig WT-CFTR": {"target": "T3, pig WT-CFTR (Sus scrofa, UniProt Q6PQZ2)", "T3 construct": "expressed in transfected cells; host or cells: CHO cells, pcDNA plasmid"}, "[2]": {"details": "100 nM Inh-172, read-out: percent inhibition of current, Mean"}, "[3]": {"details": "500 nM Inh-172, read-out: percent inhibition of current, Mean"}, "[4]": {"details": "500 nM Inh-172, read-out: percent inhibition of current, individual cell"}, "[5]": {"details": "1000 nM Inh-172, read-out: percent inhibition of current, Mean"}, "[6]": {"details": "1000 nM Inh-172, read-out: percent inhibition of current, individual cell"}, "[7]": {"details": "5000 nM Inh-172, read-out: percent inhibition of current, Mean"}, "[8]": {"details": "5000 nM Inh-172, read-out: percent inhibition of current, individual cell"}, "[9]": {"details": "10000 nM Inh-172, read-out: percent inhibition of current, Mean"}, "[10]": {"details": "10000 nM Inh-172, read-out: percent inhibition of current, individual cell"}}, "note": "“And” between values parts separate entries of the source, which are not always exact repeats. Identical values can stand only once. Like-named read-outs stand apart in the source and are kept apart here.", "data": [{"compound": "O=C(O)c1ccc(/C=C2\\SC(=S)N(c3cccc(C(F)(F)F)c3)C2=O)cc1", "note": "[Inh-172, CFTRinh-172]", "values": [{"measurement": "percent inhibition of current, individual cell", "setting": "W1145L-CFTR; 100 nM Inh-172", "value": 11}, {"measurement": "inhibition at 0.1 µM", "setting": "W1145L-CFTR; [2]", "value": 16, "unit": "%"}, {"measurement": "inhibition at 0.1 µM", "setting": "W1145L-CFTR; 100 nM Inh-172, read-out: percent inhibition of current, individual cell", "value": 21, "unit": "%"}, {"measurement": "percent inhibition of current, individual cell", "setting": "W1145L-CFTR; 500 nM Inh-172", "value": "42 and 48"}, {"measurement": "inhibition at 0.5 µM", "setting": "W1145L-CFTR; [3]", "value": 44.3, "unit": "%"}, {"measurement": "inhibition at 0.5 µM", "setting": "W1145L-CFTR; [4]", "value": 43, "unit": "%"}, {"measurement": "percent inhibition of current, individual cell", "setting": "W1145L-CFTR; 1000 nM Inh-172", "value": "59 and 67"}, {"measurement": "inhibition at 1 µM", "setting": "W1145L-CFTR; [5]", "value": 62.3, "unit": "%"}, {"measurement": "inhibition at 1 µM", "setting": "W1145L-CFTR; [6]", "value": 61, "unit": "%"}, {"measurement": "percent inhibition of current, individual cell", "setting": "W1145L-CFTR; 5000 nM Inh-172", "value": "83 and 87 and 70"}, {"measurement": "inhibition at 5 µM", "setting": "W1145L-CFTR; [7]", "value": 81.3, "unit": "%"}, {"measurement": "inhibition at 5 µM", "setting": "W1145L-CFTR; [8]", "value": 85, "unit": "%"}, {"measurement": "percent inhibition of current, individual cell", "setting": "W1145L-CFTR; 10000 nM Inh-172", "value": "91 and 83"}, {"measurement": "inhibition at 10 µM", "setting": "W1145L-CFTR; [9]", "value": 89.5, "unit": "%"}, {"measurement": "inhibition at 10 µM", "setting": "W1145L-CFTR; [10]", "value": 92, "unit": "%"}, {"measurement": "Hill Coefficient", "setting": "W1145L-CFTR; W1145L", "value": "0.82 ± 0.07"}, {"measurement": "IC50", "setting": "W1145L-CFTR; W1145L", "value": "0.64 ± 0.06", "unit": "µM"}, {"measurement": "percent inhibition of current, individual cell", "setting": "[1]; 100 nM Inh-172", "value": "4 and 3 and 1"}, {"measurement": "inhibition at 0.1 µM", "setting": "[1]; [2]", "value": 2.7, "unit": "%"}, {"measurement": "percent inhibition of current, individual cell", "setting": "[1]; 500 nM Inh-172", "value": "17 and 15"}, {"measurement": "inhibition at 0.5 µM", "setting": "[1]; [3]", "value": 17.3, "unit": "%"}, {"measurement": "inhibition at 0.5 µM", "setting": "[1]; [4]", "value": 20, "unit": "%"}, {"measurement": "percent inhibition of current, individual cell", "setting": "[1]; 1000 nM Inh-172", "value": "30 and 24"}, {"measurement": "inhibition at 1 µM", "setting": "[1]; [5]", "value": 32, "unit": "%"}, {"measurement": "inhibition at 1 µM", "setting": "[1]; [6]", "value": 42, "unit": "%"}, {"measurement": "percent inhibition of current, individual cell", "setting": "[1]; 5000 nM Inh-172", "value": "67 and 68"}, {"measurement": "inhibition at 5 µM", "setting": "[1]; [7]", "value": 68.7, "unit": "%"}, {"measurement": "inhibition at 5 µM", "setting": "[1]; [8]", "value": 71, "unit": "%"}, {"measurement": "percent inhibition of current, individual cell", "setting": "[1]; 10000 nM Inh-172", "value": "83 and 81"}, {"measurement": "inhibition at 10 µM", "setting": "[1]; [9]", "value": 83.3, "unit": "%"}, {"measurement": "inhibition at 10 µM", "setting": "[1]; [10]", "value": 86, "unit": "%"}, {"measurement": "Hill Coefficient", "setting": "[1]; p-hTMD1-p", "value": "1.03 ± 0.03"}, {"measurement": "IC50", "setting": "[1]; p-hTMD1-p", "value": "2.21 ± 0.07", "unit": "µM"}, {"measurement": "percent inhibition of current, individual cell", "setting": "pig WT-CFTR; 50 nM Inh-172", "value": "2.0 and 4.0 and 8.0 and 15.0 and 7.0"}, {"measurement": "inhibition at 0.05 µM", "setting": "pig WT-CFTR; 50 nM Inh-172, read-out: percent inhibition of current, Mean", "value": 7.2, "unit": "%"}, {"measurement": "percent inhibition of current, individual cell", "setting": "pig WT-CFTR; 100 nM Inh-172", "value": "2.0 and 18.0 and 5.0 and 13.0 and 6.0 and 7.0"}, {"measurement": "inhibition at 0.1 µM", "setting": "pig WT-CFTR; [2]", "value": 8.1, "unit": "%"}, {"measurement": "percent inhibition of current, individual cell", "setting": "pig WT-CFTR; 500 nM Inh-172", "value": "31.0 and 27.0 and 25.0 and 23.0"}, {"measurement": "inhibition at 0.5 µM", "setting": "pig WT-CFTR; [3]", "value": 25.9, "unit": "%"}, {"measurement": "inhibition at 0.5 µM", "setting": "pig WT-CFTR; [4]", "value": 22, "unit": "%"}, {"measurement": "percent inhibition of current, individual cell", "setting": "pig WT-CFTR; 1000 nM Inh-172", "value": "33.0 and 38.0 and 40.0 and 21.0 and 41.0 and 44.0 and 39.0 and 36.0 and 29.0 and 42.0"}, {"measurement": "inhibition at 1 µM", "setting": "pig WT-CFTR; [5]", "value": 36.3, "unit": "%"}, {"measurement": "percent inhibition of current, individual cell", "setting": "pig WT-CFTR; 5000 nM Inh-172", "value": "62.0 and 70.0 and 59.0 and 77.0 and 72.0 and 79.0"}, {"measurement": "inhibition at 5 µM", "setting": "pig WT-CFTR; [7]", "value": 68.1, "unit": "%"}, {"measurement": "inhibition at 5 µM", "setting": "pig WT-CFTR; [8]", "value": 67, "unit": "%"}, {"measurement": "percent inhibition of current, individual cell", "setting": "pig WT-CFTR; 10000 nM Inh-172", "value": "83.0 and 79.0 and 82.0 and 73.0 and 80.0 and 93.0"}, {"measurement": "inhibition at 10 µM", "setting": "pig WT-CFTR; [9]", "value": 82.7, "unit": "%"}, {"measurement": "inhibition at 10 µM", "setting": "pig WT-CFTR; [10]", "value": 89, "unit": "%"}, {"measurement": "Hill Coefficient", "setting": "pig WT-CFTR; Pig WT", "value": "0.83 ± 0.04"}, {"measurement": "IC50", "setting": "pig WT-CFTR; Pig WT", "value": "1.86 ± 0.12", "unit": "µM"}, {"measurement": "IC50 of pig WT-CFTR higher than human WT-CFTR", "setting": "pig WT-CFTR; cho cells inside-out patch", "value": "~ 20 fold"}]}]}
